{
  "source": "patent US20230190852A1",
  "about": "“COMPOSITIONS AND METHODS FOR JOINT HEALTH” (Unigen, Inc., priority 2013, published 2023)",
  "key": {"[1]": {"system": "CD-1 mice", "test": "Visceral pain perception model (Writhing's test, acetic acid)", "format": "in vivo", "protocol": "Mice (n=6 per group) were habituated under an inverted Plexiglas observation chamber for 30 minutes to allow them to acclimatize to their surroundings. Animals were orally administered treatment articles at different doses, […], or vehicle control (propylene glycol) 30 minutes before intraperitoneal administration of freshly made acetic acid solution (0.7% in 0.9% NaCl) at 10 ml/kg using a 26 gauge needle. The experiment was carried out at room temperature. After the challenge, each animal was placed back into its own individual section of the observation chamber and the number of constrictions of the abdominal muscle together with stretching was counted cumulatively over a period of 30 minutes (Collier et al., Br. J. Pharmacol. Chemother. 32:295, 1968)."}, "[2]": {"system": "Lewis rats", "test": "Carrageenan-induced rat paw edema model (paw edema and pain sensitivity)", "format": "in vivo", "conditions": "for Pain sensitivity (Analgesia), percent change vs. vehicle, 1 hr / Paw Edema (Inflammation), percent change vs. vehicle, 1 hr: 1 hr after treatment; for Pain sensitivity (Analgesia), percent change vs. vehicle, 5 hr / Paw Edema (Inflammation), percent change vs. vehicle, 5 hr: 5 hr after treatment; for Pain sensitivity, percent change of vehicle / Paw edema, percent change of vehicle: 200 mg/kg oral 1 hr after carrageenan, female Lewis rats, 200 mg/kg", "protocol": "Local inflammation was induced by intraplantar injection of carrageenan λ (Sigma, St. Louis, Mo.; 100 μl of 1% [w/v] in saline) into the plantar surface of right hind paw of sedated rat (with 2.5% isoflurane) at time 0 (T=0) (Gamache et al., J Neurosurg. 65:679, 1986; Guay et al., J. Biol. Chem. 279:24866, 2004; Chou et al., Anesth. Analg. 97:1724, 2003). Rats were acclimated in a procedure room for 20-30 minutes before each measurement was taken. Allodynia was evaluated by measuring responsiveness to the tip of a Randell-Selitto paw pressure test applied perpendicular to the central plantar surface of the right hind paw. A positive response to the applied pressure, noted by sharp withdrawal of the paw, was recorded automatically by an electronic Von Frey Anesthesiometer (2390 series Electrovonfrey, IITC, Woodland Hills, Calif.) (Vivancos et al., Braz. J. Med. Biol. Res. 37:391, 2004). Mechanical allodynia was evaluated before carrageenan inoculation, and thereafter at 1 hr, 2 hr, 4 hr and 6 hr. Paw edema volume was measured with the use of Plethysmometer (IITC, Woodland Hills, Calif.; Model 520) at time 0 (before carrageenan), and then 1 hr, 2 hr, 4 hr, and 6 hr after carrageenan injection. Animals (N=5 per group) were orally gavaged with a positive control ibuprofen (Spectrum Chemical MFG, Gardena, Calif.) (100 or 200 mg/kg); test articles such as: extracts, and combinations of extracts at various doses from 100, 200, 300 to 400 mg/kg and vehicle control (propylene glycol) were given 1 hour after carrageenan inoculation unless specified otherwise."}, "[3]": {"conditions": "200 mg/kg oral, vs vehicle, CD-1 mice"}, "[4]": {"conditions": "200 mg/kg oral, listed as ibuprofen"}, "[5]": {"conditions": "200 mg/kg oral, 3 hr after treatment"}},
  "note": "Several values for one entry are separate records, joined by “and”; a condition that tells them apart may be missing. Equal entries are not always repeated. Marks after values point to notes of the source that are not given here.",
  "data": [
    {"smiles": "CC(C)Cc1ccc(C(C)C(=O)O)cc1", "note": "(stereo not drawn) [Ibuprofen]", "values": [
      {"measurement": "Max % inhibition of visceral pain sensitivity", "setting": "[1]; 100 mg/kg oral", "result": 67.6, "unit": "%"},
      {"measurement": "Visceral Pain Sensitivity % ↓ vs. Vehicle", "setting": "[1]; 100 mg/kg oral", "result": 56.1, "unit": "%"},
      {"measurement": "% reduction of pain behavior", "setting": "[1]; 200 mg/kg oral", "result": "67.4% and 46.0%"},
      {"measurement": "number of abdominal constrictions / behavioral responses in 30 minutes, Mean ± SD", "setting": "[1]; 200 mg/kg oral", "result": "25.3±14.3 and 41.8±12.6"},
      {"measurement": "Visceral pain sensitivity, behavioral responses, Mean ± SD", "setting": "[1]; 200 mg/kg oral 30 min before acetic acid i.p., observed 30 minutes, CD-1 mice", "result": "34.5 ± 12.7 and 25.3 ± 14.3 and 41.8 ± 12.6"},
      {"measurement": "Visceral pain sensitivity, % Inhibition", "setting": "[1]; [3]", "result": "67.4% and 46.0%"},
      {"measurement": "Visceral pain sensitivity, % inhibition vs vehicle", "setting": "[1]; [3]", "result": 64.1, "unit": "%"},
      {"measurement": "Pain sensitivity (Analgesia), percent change vs. vehicle, 1 hr", "setting": "[2]; 200 mg/kg oral", "result": "55.6* % and 55.1* % and 52.9* %"},
      {"measurement": "Paw Edema (Inflammation), percent change vs. vehicle, 1 hr", "setting": "[2]; 200 mg/kg oral", "result": "43.5* % and 39.5* % and 44.6* %"},
      {"measurement": "Pain sensitivity (Analgesia), percent change vs. vehicle, 1 hr", "setting": "[2]; [4]", "result": 55.1, "unit": "%"},
      {"measurement": "Paw Edema (Inflammation), percent change vs. vehicle, 1 hr", "setting": "[2]; [4]", "result": 39.5, "unit": "%"},
      {"measurement": "Pain sensitivity (Analgesia), percent change vs. vehicle, 3 hr", "setting": "[2]; [5]", "result": "62.7* % and 70.3* % and 62.5* %"},
      {"measurement": "Paw Edema (Inflammation), percent change vs. vehicle, 3 hr", "setting": "[2]; [5]", "result": "58.0* % and 50.4* % and 54.9* %"},
      {"measurement": "Paw Edema (Inflammation), percent change vs. vehicle, 3 hr", "setting": "[2]; 200 mg/kg oral, 3 hr after treatment, listed as ibuprofen", "result": 50.4, "unit": "%"},
      {"measurement": "Pain sensitivity (Analgesia), percent change vs. vehicle, 5 hr", "setting": "[2]; 200 mg/kg oral", "result": "44.6* % and 50.8* % and 48.8* %"},
      {"measurement": "Paw Edema (Inflammation), percent change vs. vehicle, 5 hr", "setting": "[2]; 200 mg/kg oral", "result": "50.3* % and 46.6* % and 50.0* %"},
      {"measurement": "Pain sensitivity (Analgesia), percent change vs. vehicle, 5 hr", "setting": "[2]; [4]", "result": 50.8, "unit": "%"},
      {"measurement": "Paw Edema (Inflammation), percent change vs. vehicle, 5 hr", "setting": "[2]; [4]", "result": 46.6, "unit": "%"},
      {"measurement": "Pain sensitivity, percent change of vehicle", "setting": "[2]; 1 hr", "result": "57.1* % and 55.4* % and 56.4* % and 56.1* % and 53.7* % and 52.4* % and 58.6* %"},
      {"measurement": "Paw edema, percent change of vehicle", "setting": "[2]; 1 hr", "result": "53.2* % and 51.6* % and 53.9* % and 57.2* % and 54.2* % and 53.0* % and 52.5* %"},
      {"measurement": "Pain sensitivity, percent change of vehicle", "setting": "[2]; 3 hr", "result": "61.5* % and 65.9* % and 62.2* % and 59.7* % and 64.0* %"},
      {"measurement": "Paw edema, percent change of vehicle", "setting": "[2]; 3 hr", "result": "64.3* % and 61.9* % and 59.0* % and 67.6* % and 57.7* % and 60.1* % and 62.9* %"},
      {"measurement": "Pain sensitivity, percent change of vehicle", "setting": "[2]; 5 hr", "result": "44.3* % and 49.3* % and 45.0* % and 47.9* % and 47.5* % and 43.3* % and 50.7* %"},
      {"measurement": "Paw edema, percent change of vehicle", "setting": "[2]; 5 hr", "result": "50.6* % and 50.0* % and 52.6* % and 53.5* % and 48.6* % and 51.3* % and 51.6* %"}
    ]}
  ]
}
